Data published in ChEMBL document CHEMBL4680139, “Antiproliferative activity of diarylnaphthylpyrrolidine derivative via dual target inhibition” (Eur J Med Chem, 2020).
pIC50: −log10 of the molar value. Converted amounts (≈) assume the structure as drawn.

Experiments:
MCF7 [1] = test: Antiproliferative activity against human MCF-7 cells assessed as inhibition of cell growth measured after 48 hrs by SRB assay; type: functional, cell-based; settings: MCF7, 48 h
THP-1 = test: Antiproliferative activity against human THP-1 cells assessed as inhibition of cell growth measured after 48 hrs by SRB assay; type: functional, cell-based; settings: THP-1, 48 h
MDA-MB-231 [2] = test: Antiproliferative activity against human MDA-MB-231 cells assessed as inhibition of cell growth measured after 48 hrs by SRB assay; type: functional, cell-based; settings: MDA-MB-231, 48 h
HCT-116 = test: Antiproliferative activity against human HCT-116 cells assessed as inhibition of cell growth measured after 48 hrs by SRB assay; type: functional, cell-based; settings: HCT-116, 48 h
A549 = test: Antiproliferative activity against human A549 cells assessed as inhibition of cell growth measured after 48 hrs by SRB assay; type: functional, cell-based; settings: A549, 48 h
[3] = Inhibition of bovine brain tubulin polymerisation measured by turbidometric method; type: tissue-based, Bos taurus
[4] = biological target: DNA topoisomerase 2-alpha (Homo sapiens) (UniProt P11388); test: Inhibition of DNA-topoisomerase 2 in human MCF7 cells using kinetoplast DNA as substrate at 120 uM measured by ELISA; type: cell-based
DNA topoisomerase 2-alpha (Homo sapiens), sequence (P11388 whole entry): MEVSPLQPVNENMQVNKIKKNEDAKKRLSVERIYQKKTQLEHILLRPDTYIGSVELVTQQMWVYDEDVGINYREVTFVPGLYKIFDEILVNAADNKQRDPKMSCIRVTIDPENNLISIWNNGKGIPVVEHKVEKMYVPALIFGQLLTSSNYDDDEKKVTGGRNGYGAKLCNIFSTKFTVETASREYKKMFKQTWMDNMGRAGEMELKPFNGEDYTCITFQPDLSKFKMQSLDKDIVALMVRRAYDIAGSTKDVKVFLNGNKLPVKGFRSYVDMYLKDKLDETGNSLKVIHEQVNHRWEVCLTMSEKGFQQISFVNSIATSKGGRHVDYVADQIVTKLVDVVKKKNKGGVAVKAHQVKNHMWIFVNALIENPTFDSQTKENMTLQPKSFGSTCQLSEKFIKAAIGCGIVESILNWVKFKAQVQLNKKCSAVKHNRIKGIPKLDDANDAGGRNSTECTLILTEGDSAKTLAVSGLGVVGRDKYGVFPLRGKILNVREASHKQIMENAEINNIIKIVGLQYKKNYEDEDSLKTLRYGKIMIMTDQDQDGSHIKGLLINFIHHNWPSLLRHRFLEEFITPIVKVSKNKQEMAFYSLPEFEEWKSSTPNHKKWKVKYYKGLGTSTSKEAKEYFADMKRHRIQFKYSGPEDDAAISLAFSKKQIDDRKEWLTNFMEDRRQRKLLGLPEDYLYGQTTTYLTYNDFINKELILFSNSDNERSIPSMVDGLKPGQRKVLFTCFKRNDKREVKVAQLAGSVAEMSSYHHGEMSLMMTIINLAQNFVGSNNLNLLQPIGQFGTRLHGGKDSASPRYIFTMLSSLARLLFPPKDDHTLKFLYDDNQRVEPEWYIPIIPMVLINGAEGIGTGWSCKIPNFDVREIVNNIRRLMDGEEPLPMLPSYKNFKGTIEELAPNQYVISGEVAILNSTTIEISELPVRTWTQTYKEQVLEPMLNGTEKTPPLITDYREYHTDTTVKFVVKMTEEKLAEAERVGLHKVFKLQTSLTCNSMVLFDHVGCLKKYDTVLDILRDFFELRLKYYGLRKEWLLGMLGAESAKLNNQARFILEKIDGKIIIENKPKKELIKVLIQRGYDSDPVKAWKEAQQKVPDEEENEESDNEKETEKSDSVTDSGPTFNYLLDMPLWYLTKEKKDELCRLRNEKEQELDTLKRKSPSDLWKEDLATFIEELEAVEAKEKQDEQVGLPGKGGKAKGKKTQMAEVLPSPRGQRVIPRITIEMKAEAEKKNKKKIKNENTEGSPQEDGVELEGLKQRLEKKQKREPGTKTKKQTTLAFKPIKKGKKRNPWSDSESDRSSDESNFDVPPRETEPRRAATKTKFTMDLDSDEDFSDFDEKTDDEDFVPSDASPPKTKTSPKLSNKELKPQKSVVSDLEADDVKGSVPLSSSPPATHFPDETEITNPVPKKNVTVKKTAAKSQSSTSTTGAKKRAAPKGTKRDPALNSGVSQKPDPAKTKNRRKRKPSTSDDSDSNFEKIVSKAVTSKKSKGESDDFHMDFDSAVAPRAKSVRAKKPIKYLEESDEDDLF

MCF7 [5] = test: Antiproliferative activity against human MCF-7 cells assessed as inhibition of colony formation measured after 3 weeks by crystal violet staining based soft agar colony formation assay; type: functional, cell-based; settings: MCF7, 504 h
MDA-MB-231 [6] = test: Induction of apoptosis in human MDA-MB-231 cells assessed as proportion of necrotic cells at 1 ug measured after 24 hrs by Annexin V-FITC/propidium iodide staining based flow cytometry (reference value: 0.2%); type: functional; settings: dose 1 µg
MDA-MB-231 [7] = test: Induction of apoptosis in human MDA-MB-231 cells assessed as proportion of late apoptotic cells at 1 ug measured after 24 hrs by Annexin V-FITC/propidium iodide staining based flow cytometry (reference value: 0.5%); type: functional; settings: dose 1 µg
MDA-MB-231 [8] = test: Induction of apoptosis in human MDA-MB-231 cells assessed as proportion of early apoptotic cells at 1 ug measured after 24 hrs by Annexin V-FITC/propidium iodide staining based flow cytometry (reference value: 0.2%); type: functional; settings: dose 1 µg
MDA-MB-231 [9] = test: Induction of apoptosis in human MDA-MB-231 cells assessed as proportion of viable cells at 1 ug measured after 24 hrs by Annexin V-FITC/propidium iodide staining based flow cytometry (reference value: 99%); type: functional; settings: dose 1 µg

| Structure (SMILES) | pIC50 (MCF7 [1]) | pIC50 (THP-1) | pIC50 (MDA-MB-231 [2]; read-out: IC50) | pIC50 (HCT-116) | pIC50 (A549) | pIC50 [3] | inhibition [4] [%] | IC50 (MCF7 [5]) [µg/mL] | Activity (MDA-MB-231 [6]) [%] | Activity (MDA-MB-231 [7]) [%] | Activity (MDA-MB-231 [8]) [%] | pIC50 (MDA-MB-231 [2]) | Activity (MDA-MB-231 [9]) [%] |
| --- | --- | --- | --- | --- | --- | --- | --- | --- | --- | --- | --- | --- | --- |
| COc1ccc(C(c2ccc(O)cc2)c2cccc3ccccc23)c(OC)c1OC (stereo unspecified) | 4.76 | 5.02 | 4.76 | 4.80 | 4.79 |  |  |  |  |  |  |  |  |
| COc1ccc(C(c2ccccc2O)c2cccc3ccccc23)c(OC)c1OC (stereo unspecified) | 4.78 | < 4.70 | 4.75 | < 4.70 | 4.87 |  |  |  |  |  |  |  |  |
| CCN(CC)CCOc1ccc(C(c2ccc(OC)c(OC)c2OC)c2cccc3ccccc23)cc1 (stereo unspecified) | 4.81 | 4.86 | 4.81 | 5.08 | 4.94 |  |  |  |  |  |  |  |  |
| COc1cc(COC(c2ccc(OC)c(OC)c2OC)c2cccc3ccccc23)cc(OC)c1 (stereo unspecified) | < 4.70 | < 4.70 | < 4.70 | < 4.70 | 4.76 |  |  |  |  |  |  |  |  |
| C=C(c1ccc(OC)c(OC)c1OC)c1cccc2ccccc12 | 4.93 | 4.90 | 5.33 | < 4.70 | 4.70 | 5.04 |  |  |  |  |  |  |  |
| COc1ccc(C(c2ccc(OCCN3CCCCC3)cc2)c2cccc3ccccc23)c(OC)c1OC (stereo unspecified) | 4.81 | 4.78 | 4.82 | 4.92 | 4.82 |  |  |  |  |  |  |  |  |
| COc1ccc(/C(=C/c2ccc(F)cc2)c2cccc3ccccc23)c(OC)c1OC | 4.98 | 4.72 | < 4.70 | < 4.70 | 4.73 |  |  |  |  |  |  |  |  |
| COc1ccc(C(O)(Cc2ccccc2)c2cccc3ccccc23)c(OC)c1OC (stereo unspecified) | 4.97 | 4.91 | 5.32 | < 4.70 | < 4.70 | 5.22 |  |  |  |  |  |  |  |
| COc1ccc(C(c2ccc(OCCN(C)C)cc2)c2cccc3ccccc23)c(OC)c1OC (stereo unspecified) | 4.82 | 5.10 | 4.84 | 5.48 | 4.99 |  |  |  |  |  |  |  |  |
| COc1ccc(/C(=N/OCC(=O)O)c2cccc3ccccc23)c(OC)c1OC | < 4.70 | < 4.70 | < 4.70 | 5.30 | 4.76 |  |  |  |  |  |  |  |  |
| COc1ccc(C(OCc2ccccc2)c2cccc3ccccc23)c(OC)c1OC (stereo unspecified) | 4.85 | < 4.70 | < 4.70 | < 4.70 | 4.87 |  |  |  |  |  |  |  |  |
| COc1ccc(C(c2ccc(OCCN3CCCC3)cc2)c2cccc3ccccc23)c(OC)c1OC (stereo unspecified) | 4.82 | 5.27 | 4.84 | 4.97 | 4.80 |  |  |  |  |  |  |  |  |
| COc1ccc(C(OCc2ccc(C)cc2)c2cccc3ccccc23)c(OC)c1OC (stereo unspecified) | 4.97 | < 4.70 | < 4.70 | < 4.70 | 4.80 |  |  |  |  |  |  |  |  |
| COc1cc([C@@H]2c3cc4c(cc3[C@H](O)[C@H]3COC(=O)[C@H]23)OCO4)cc(OC)c1OC [PODOFILOX] | 4.96 | 4.71 | 5.24 | < 4.70 | 5.13 | 6.14 | 26.9 |  |  |  |  |  |  |
| CC/C(=C(\c1ccccc1)c1ccc(OCCN(C)C)cc1)c1ccccc1 [TAMOXIFEN] |  | 4.92 | < 4.70 | 4.35 | 5.00 |  |  | 1.31 (≈ 3.53 µM) |  |  |  |  |  |
| CCOC(=O)CO/N=C(/c1ccc(OC)c(OC)c1OC)c1cccc2ccccc12 | < 4.70 | < 4.70 | 4.79 | 5.47 | 5.17 |  |  |  |  |  |  |  |  |
| COc1ccc(C(O)(Cc2ccc(C)cc2)c2cccc3ccccc23)c(OC)c1OC (stereo unspecified) | < 4.70 | < 4.70 | < 4.70 | < 4.70 | 4.73 |  |  |  |  |  |  |  |  |
| COC(=O)c1ccc(COC(c2ccc(OC)c(OC)c2OC)c2cccc3ccccc23)cc1 (stereo unspecified) | < 4.70 | < 4.70 | < 4.70 | < 4.70 | 4.92 |  |  |  |  |  |  |  |  |

| Structure (SMILES) | pIC50 (MCF7 [1]) | pIC50 (THP-1) | pIC50 (MDA-MB-231 [2]; read-out: IC50) | pIC50 (HCT-116) | pIC50 (A549) | pIC50 [3] | inhibition [4] [%] | IC50 (MCF7 [5]) [µg/mL] | Activity (MDA-MB-231 [6]) [%] | Activity (MDA-MB-231 [7]) [%] | Activity (MDA-MB-231 [8]) [%] | pIC50 (MDA-MB-231 [2]) | Activity (MDA-MB-231 [9]) [%] |
| --- | --- | --- | --- | --- | --- | --- | --- | --- | --- | --- | --- | --- | --- |
| CCOC(=O)C(C)C(O)(c1ccc(OC)c(OC)c1OC)c1cccc2ccccc12 (stereo unspecified) | < 4.70 | < 4.70 | < 4.70 | < 4.70 | 5.40 |  |  |  |  |  |  |  |  |
| COc1ccc(/C(=C\c2ccc(F)cc2)c2cccc3ccccc23)c(OC)c1OC | 4.75 | 5.04 | 4.79 | < 4.70 | < 4.70 |  |  |  |  |  |  |  |  |
| COc1ccc(C(O)(C/C=C\c2ccccc2)c2cccc3ccccc23)c(OC)c1OC (stereo unspecified) | 4.99 | 4.71 | 4.89 | < 4.70 | 4.75 |  |  |  |  |  |  |  |  |
| COc1ccc(C(OCCN(C)C)c2cccc3ccccc23)c(OC)c1OC (stereo unspecified) | 4.95 | < 4.70 | < 4.70 | < 4.70 | 4.75 |  |  |  |  |  |  |  |  |
| COc1ccc(C(O)(Cc2ccc(F)cc2)c2cccc3ccccc23)c(OC)c1OC (stereo unspecified) | 5.12 | 5.23 | 5.26 | < 4.70 | 5.23 |  |  |  |  |  |  |  |  |
| COc1ccc(C(c2ccc(OC(C)CN(C)C)cc2)c2cccc3ccccc23)c(OC)c1OC (stereo unspecified) | 4.88 | 4.82 | 5.36 | 5.08 | 4.94 |  |  |  |  |  |  |  |  |
| COc1ccc(/C(=N/OC(C)=O)c2cccc3ccccc23)c(OC)c1OC | < 4.70 | < 4.70 | 4.77 | 5.30 | 4.76 |  |  |  |  |  |  |  |  |
| COc1cccc2c1C(=O)c1c(O)c3c(c(O)c1C2=O)C[C@@](O)(C(=O)CO)C[C@@H]3O[C@H]1C[C@H](N)[C@H](O)[C@H](C)O1 [DOXORUBICIN] |  |  |  |  | 6.20 |  |  |  | 80.1 | 6.2 | 0.1 | 5.29 | 13.7 |
| CCOC(=O)CCO/N=C(/c1ccc(OC)c(OC)c1OC)c1cccc2ccccc12 | < 4.70 | < 4.70 | 4.82 | 5.00 | 4.71 |  |  |  |  |  |  |  |  |
| COc1ccc(C(c2ccccc2OCCN2CCCCC2)c2cccc3ccccc23)c(OC)c1OC (stereo unspecified) | 4.91 | 4.72 | 5.14 | 5.33 | 5.01 |  |  |  |  |  |  |  |  |
| COc1ccc(C(c2ccc(OCC(=O)O)cc2)c2cccc3ccccc23)c(OC)c1OC (stereo unspecified) | < 4.70 | < 4.70 | < 4.70 | 5.30 | 4.78 |  |  |  |  |  |  |  |  |
| C=CCC(O)(c1ccc(OC)c(OC)c1OC)c1cccc2ccccc12 (stereo unspecified) | < 4.70 | < 4.70 | < 4.70 | < 4.70 | 4.97 |  |  |  |  |  |  |  |  |
| C=CCOC(c1ccc(OC)c(OC)c1OC)c1cccc2ccccc12 (stereo unspecified) | < 4.70 | < 4.70 | < 4.70 | < 4.70 | 5.01 |  |  |  |  |  |  |  |  |
| COc1ccc(/C(=C/c2ccc(C)cc2)c2cccc3ccccc23)c(OC)c1OC | < 4.70 | < 4.70 | 5.08 | < 4.70 | 4.71 |  |  |  |  |  |  |  |  |
| COc1ccc(/C(=N/O)c2cccc3ccccc23)c(OC)c1OC | < 4.70 | < 4.70 | 5.60 | 5.23 | 4.88 | 5.25 |  |  |  |  |  |  |  |
| COc1ccc(C(c2ccc(OCCO)cc2)c2cccc3ccccc23)c(OC)c1OC (stereo unspecified) | < 4.70 | 4.78 | < 4.70 | < 4.70 | < 4.70 |  |  |  |  |  |  |  |  |
| CCOC(=O)/C=C/CO/N=C(/c1ccc(OC)c(OC)c1OC)c1cccc2ccccc12 | < 4.70 | < 4.70 | < 4.70 | < 4.70 | 4.85 |  |  |  |  |  |  |  |  |
